These results are taken from patent publication US6878742B2, “Heterocyclic sulfonamide inhibitors of beta amyloid production” (Wyeth, priority 2000, dated 2005).

The subject of the first experiment is amyloid precursor protein (APP) proteolysis. The experiment in a line: Repressor Release Assay (RRA). The format is cell-based. The conditions noted are these: Conc 20 μg/mL; luciferase activity over diluent control. The method, boiled down:
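CHO-K1 cells grown in DMEM with 10% fetal bovine serum were transiently co-transfected with pRSVO-luc and APP-lacI constructs via Lipofectamine Plus, plated into opaque 96-well plates, and exposed to diluted compound in duplicate for 36-48 hours at 37° C. LucLite luciferase signal was read on a TopCount and expressed as fold increase in relative light units over Hepes/DMSO diluent control.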
Turning to `CCNC(C)(CO)CNS(=O)(=O)c1ccc(Cl)s1` (stereo not shown) [Example 80], the “APPI Fold Increase” value is recorded as 1.8 fold.

Still in this experiment, the particulars now being: Conc 20 μg/mL; luciferase activity over diluent control; read-out: APPI Fold Increase.
Consider `CC[C@@H](C(C)C)[C@@H](CO)NS(=O)(=O)c1ccc(Br)s1` [Example 74, 5-bromo-N-[(1S,2S)-2-ethyl-1-(hydroxymethyl)-3-methylbutyl]thiophene-2-sulfonamide], for which the fold induction at 20 µg/mL worked out at 5.1.
Still for that read-out and setting: next, `CC(C)C[C@@H](C(C)C)[C@@H](CO)NS(=O)(=O)c1ccc(Br)s1` [Example 75, 5-bromo-N-[(1S,2S)-1-(hydroxymethyl)-2-isopropyl-4-methylpentyl]thiophene-2-sulfonamide]: 4.7; `CC[C@@H](c1ccc(-c2ccccc2)cc1)[C@@H](CO)NS(=O)(=O)c1ccc(Br)s1` [Example 76, N-[(1S,2S)-2-[1,1′-biphenyl]-4-yl-1-(hydroxymethyl)butyl]-5-bromothiophene-2-sulfonamide]: 3.2.
Consider `CCCCCC[C@@H](CC)[C@@H](CO)NS(=O)(=O)c1ccc(Cl)s1` [Example 77A, 5-Chloro-N-[(1S,2R)-2-ethyl-1-(hydroxymethyl)octyl]thiophene-2-sulfonamide], for which the fold induction at 20 µg/mL came to 3.1.
On the same count and under the same terms, the same measure for `CCCCCC[C@H](CC)[C@@H](CO)NS(=O)(=O)c1ccc(Cl)s1` [Example 77B, 5-chloro-N-[(1S,2S)-2-ethyl-1-(hydroxymethyl)octyl]thiophene-2-sulfonamide]: 16.9; for `CCCCCC[C@@H](CC)[C@@H](CO)NS(=O)(=O)c1ccc(Br)s1` [Example 78A, 5-bromo-N-[(1S,2R)-2-ethyl-1-(hydroxymethyl)octyl]thiophene-2-sulfonamide]: 5.8; for `CCCCCC[C@H](CC)[C@@H](CO)NS(=O)(=O)c1ccc(Br)s1` [Example 78B, 5-bromo-N-[(1S,2S)-2-ethyl-1-(hydroxymethyl)octyl]thiophene-2-sulfonamide]: 23.
Still for that read-out and setting: the same measure for `CCC(NC)[C@@H](CO)NS(=O)(=O)c1ccc(Cl)s1` (stereo partly drawn) [Example 79, 5-Chloro-N-[(1S)-1-(hydroxymethyl)-2-(methylamino)butyl]thiophene-2-sulfonamide]: 1.6.
On the same count and under the same terms, next, `CC(NCCO)[C@@H](CO)NS(=O)(=O)c1ccc(Cl)s1` (stereo partly drawn) [Example 81, 5-chloro-N-[(1S)-2-[(2-hydroxyethyl)amino]-1-(hydroxymethyl)propyl]-2-thiophenesulfonamide]: 1.5; `CCC(NCCO)[C@@H](CO)NS(=O)(=O)c1ccc(Cl)s1` (stereo partly drawn) [Example 82, 5-chloro-N-[(1S)-2-[(2-hydroxyethyl)amino]-1-(hydroxymethyl)butyl]-2-thiophenesulfonamide]: 2.2.
As to `CCCCCC(NCCO)[C@@H](CO)NS(=O)(=O)c1ccc(Cl)s1` (stereo partly drawn) [Example 83, 5-chloro-N-[(1S)-2-[(2-hydroxyethyl)amino]-1-(hydroxymethyl)heptyl]-2-thiophenesulfonamide], the fold induction at 20 µg/mL worked out at 1.7.
For the molecule `CC(NCc1ccccc1)[C@@H](CO)NS(=O)(=O)c1ccc(Cl)s1` (stereo partly drawn) [Example 84, N-[(1S)-2-(benzylamino)-1-(hydroxymethyl)propyl]-5-chloro-2-thiophenesulfonamide], the fold induction at 20 µg/mL was determined as 3.8.
For the molecule `CCC(NCc1ccccc1)[C@@H](CO)NS(=O)(=O)c1ccc(Cl)s1` (stereo partly drawn) [Example 85, N-[(1S)-2-(benzylamino)-1-(hydroxymethyl)butyl]-5-chloro-2-thiophenesulfonamide], the fold induction at 20 µg/mL came to 8.9.
The same measure, in the same setting: the same measure for `CC(NC1CCCC1)[C@@H](CO)NS(=O)(=O)c1ccc(Cl)s1` (stereo partly drawn) [Example 86, 5-chloro-N-[(1S)-2-(cyclopentylamino)-1-(hydroxymethyl)propyl]-2-thiophenesulfonamide]: 20; for `CC[C@H](C)[C@@H](CO)N(CCOc1ccccc1)S(=O)(=O)c1ccc(Cl)s1` [Example 87, 5-Chloro-N-[(1S,2S)-1-(hydroxymethyl)-2-methylbutyl]-N-(2-phenoxyethyl)thiophene-2-sulfonamide]: 3.1.
